# Laboratory results reported in ChEMBL document CHEMBL4251715, “Hepatoprotective Dibenzocyclooctadiene and Tetrahydrobenzocyclooctabenzofuranone Lignans from Kadsura longipedunculata” (2018).
# Tested on: HepG2
# Test: Hepatoprotective activity against APAP-induced toxicity in human HepG2 cells assessed as cell survival rate at 10 uM after 48 hrs by MTT assay relative to control
# Format: functional
# Settings: HepG2, 48 h, read-out: Survival
row,Compound,viability at 10 µM
1,COC(=O)c1cc(OC)c2c(c1-c1c(CO)cc(OC)c3c1OCO3)OCO2 [BICYCLOL],49%
2,COC1=C(OC)C(=O)[C@]23COc4c5c(cc(c42)[C@H](OC(=O)c2ccccc2)[C@H](C)[C@](C)(O)CC3=C1)OCO5,52.2%
3,COC1=C(OC)C(=O)[C@]23COc4c5c(cc(c42)[C@H](OC(C)=O)[C@H](C)[C@H](C)CC3=C1)OCO5,50.2%
